Test results published in US6737383B1, “Herbicidal oxadiazolidines” (priority 1999, dated 2004).

Tests used:
[1] = test system: blackgrass; test: Test B pre/postemergence blackgrass; type: in vivo, Alopecurus myosuroides
Summary of the method: (§1)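 Herbicidal effect was estimated by eye on a ten-point control scale after plants spent twelve to sixteen days in a greenhouse following soil or foliar treatment. Foliar sprays targeted plants at one to four leaves; all doses were formulated in a non-phytotoxic solvent with surfactant.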

[2] = test system: surinam grass; test: Test B pre/postemergence surinam grass; type: in vivo, Brachiaria decumbens
Summary of the method: as §1

[3] = test system: cocklebur; test: Test B pre/postemergence cocklebur; type: in vivo, Xanthium strumarium
Summary of the method: as §1

[4] = test system: corn; test: Test B pre/postemergence corn; type: in vivo, Zea mays
Summary of the method: as §1

[5] = test system: crabgrass; test: Test B pre/postemergence crabgrass; type: in vivo, Digitaria sanguinalis
Summary of the method: as §1

[6] = test system: giant foxtail; test: Test B pre/postemergence giant foxtail; type: in vivo, Setaria faberii
Summary of the method: as §1

[7] = test system: morningglory; test: Test B pre/postemergence morningglory; type: in vivo, Ipomoea hederacea
Summary of the method: as §1

[8] = test system: pigweed; test: Test B pre/postemergence pigweed; type: in vivo, Amaranthus retroflexus
Summary of the method: as §1

[9] = test system: rape; test: Test B pre/postemergence rape; type: in vivo, Brassica napus
Summary of the method: as §1

[10] = test system: soybean; test: Test B pre/postemergence soybean; type: in vivo, Glycine max
Summary of the method: as §1

[11] = test system: sugar beet; test: Test B pre/postemergence sugar beet; type: in vivo, Beta vulgaris
Summary of the method: as §1

[12] = test system: velvetleaf; test: Test B pre/postemergence velvetleaf; type: in vivo, Abutilon theophrasti
Summary of the method: as §1

[13] = test system: wheat; test: Test B pre/postemergence wheat; type: in vivo, Triticum aestivum
Summary of the method: as §1

[14] = test system: wild oat; test: Test B pre/postemergence wild oat; type: in vivo, Avena fatua
Summary of the method: as §1

[15] = test system: purple nutsedge; test: Test B pre/postemergence purple nutsedge; type: in vivo, Cyperus rotundus
Summary of the method: as §1

[16] = test system: rice; test: Test B flood test rice; type: in vivo, Oryza sativa
Summary of the method: (§2)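 Each value is a visual injury score relative to controls, with 10 meaning complete control and 0 no effect. Evaluation took place twelve to sixteen days after the 2-leaf-stage plants were treated and kept in the greenhouse.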

[17] = test system: smallflower flatsedge; test: Test B flood test smallflower flatsedge; type: in vivo, Cyperus difformis
Summary of the method: as §2

[18] = test system: duck salad; test: Test B flood test duck salad; type: in vivo, Heteranthera limosa
Summary of the method: as §2

[19] = test system: bamyardgrass; test: Test B flood test barnyardgrass; type: in vivo, Echinochloa crus-galli
Summary of the method: as §2

[20] = Postemergence, Rate 125 g/ha, scale 0 to 10, 0 is no effect, 10 is complete control
[21] = Postemergence, Rate 250 g/ha, scale 0 to 10
[22] = Postemergence, Rate 500 g/ha, scale 0 to 10, 0 is no effect, 10 is complete control
[23] = Preemergence, Rate 62 g/ha, scale of 0 to 10 where 0 is no effect and 10 is complete control
[24] = Preemergence, Rate 125 g/ha, scale 0 to 10, 0 is no effect, 10 is complete control
[25] = Preemergence, Rate 250 g/ha, scale 0 to 10, 0 is no effect, 10 is complete control
[26] = Preemergence, Rate 500 g/ha, scale of 0 to 10 where 0 is no effect and 10 is complete control
[27] = Rate 62 g/ha, Postemergence, scale 0 to 10 (0 no effect, 10 complete control)
[28] = Rate 62 g/ha, flood test species, Pre-emergence, visual evaluation after twelve to sixteen days
[29] = Rate 125 g/ha, under heading Pre-emergence, flood test species, visual evaluation after twelve to sixteen days
[30] = Rate 250 g/ha, Pre-emergence (flood test species), scale 0 to 10, 0 is no effect, 10 is complete control
[31] = Rate 500 g/ha, Pre-emergence section of Table B, 0 to 10 scale (0 no effect, 10 complete control)

## CC(C)N(C(=O)n1oc(=O)n(CC2=NCCO2)c1=O)c1ccccc1 [Compound 495]
[1]; [20]
  Blackgrass plant response rating: 0
[1]; [21]
  Blackgrass plant response rating: 0
[1]; [22]
  Plant response rating, Blackgrass: 0
[1]; [23]
  Plant response rating, Blackgrass: 0
[1]; [24]
  Blackgrass plant response rating: 0
[1]; [25]
  Blackgrass plant response rating: 0
[1]; [26]
  Blackgrass plant response rating: 0
[1]; [27]
  Blackgrass plant response rating: 0
[2]; [20]
  B. signalgrass plant response rating: 0
[2]; Postemergence, Rate 250 g/ha, scale 0 to 10, 0 no effect, 10 complete control
  B. signalgrass plant response rating: 0
[2]; [22]
  Plant response rating, B. signalgrass: 0
[2]; [23]
  Plant response rating, B. signalgrass: 0
[2]; [24]
  B. signalgrass plant response rating: 0
[2]; [25]
  B. signalgrass plant response rating: 0
[2]; Preemergence, Rate 500 g/ha, scale 0 to 10, 0 is no effect, 10 is complete control
  B. signalgrass plant response rating: 0
[2]; [27]
  B. signalgrass plant response rating: 0
[3]; [20]
  Cocklebur plant response rating: 0
[3]; [21]
  Cocklebur plant response rating: 0
[3]; [22]
  Plant response rating, Cocklebur: 0
[3]; [23]
  Plant response rating, Cocklebur: 0
[3]; [24]
  Cocklebur plant response rating: 0
[3]; [25]
  Cocklebur plant response rating: 0
[3]; [26]
  Cocklebur plant response rating: 0
[3]; [27]
  Cocklebur plant response rating: 0
[4]; [20]
  Corn plant response rating: 0
[4]; [21]
  Corn plant response rating: 0
[4]; [22]
  Plant response rating, Corn: 0
[4]; [23]
  Plant response rating, Corn: 0
[4]; [24]
  Corn plant response rating: 0
[4]; [26]
  Corn plant response rating: 0
[4]; [27]
  Corn plant response rating: 0
[5]; [20]
  Crabgrass plant response rating: 0
[5]; [21]
  Crabgrass plant response rating: 0
[5]; [22]
  Plant response rating, Crabgrass: 0
[5]; [23]
  Plant response rating, Crabgrass: 0
[5]; [24]
  Crabgrass plant response rating: 0
[5]; [26]
  Crabgrass plant response rating: 0
[5]; [27]
  Crabgrass plant response rating: 0
[6]; [20]
  Giant foxtail plant response rating: 0
[6]; [22]
  Plant response rating, Giant foxtail: 0
[6]; [23]
  Plant response rating, Giant foxtail: 0
[6]; [24]
  Giant foxtail plant response rating: 0
[6]; [26]
  Giant foxtail plant response rating: 0
[6]; [27]
  Giant foxtail plant response rating: 0
[7]; [20]
  Morningglory plant response rating: 1
[7]; [22]
  Plant response rating, Morningglory: 7
[7]; [23]
  Plant response rating, Morningglory: 0
[7]; [24]
  Morningglory plant response rating: 0
[7]; [26]
  Morningglory plant response rating: 0
[7]; [27]
  Morningglory plant response rating: 1
[8]; [20]
  Redroot pigweed plant response rating: 0
[8]; [22]
  Plant response rating, Redroot pigweed: 0
[8]; [23]
  Plant response rating, Redroot pigweed: 0
[8]; [24]
  Redroot pigweed plant response rating: 0
[8]; [26]
  Redroot pigweed plant response rating: 0
[8]; [27]
  Redroot pigweed plant response rating: 0
[9]; [20]
  Rape plant response rating: 0
[9]; [22]
  Plant response rating, Rape: 0
[9]; [23]
  Plant response rating, Rape: 0
[9]; [24]
  Rape plant response rating: 0
[9]; [26]
  Rape plant response rating: 0
[9]; [27]
  Rape plant response rating: 0
[10]; [20]
  Soybean plant response rating: 0
[10]; [22]
  Plant response rating, Soybean: 0
[10]; [23]
  Plant response rating, Soybean: 0
[10]; [24]
  Soybean plant response rating: 0
[10]; [26]
  Soybean plant response rating: 0
[10]; [27]
  Soybean plant response rating: 0
[11]; [20]
  Sugarbeets plant response rating: 0
[11]; [22]
  Plant response rating, Sugarbeets: 0
[11]; [23]
  Plant response rating, Sugarbeets: 0
[11]; [24]
  Sugarbeets plant response rating: 0
[11]; [26]
  Sugarbeets plant response rating: 0
[11]; [27]
  Sugarbeets plant response rating: 0
[12]; [20]
  Velvetleaf plant response rating: 0
[12]; [22]
  Plant response rating, Velvetleaf: 0
[12]; [23]
  Plant response rating, Velvetleaf: 0
[12]; [24]
  Velvetleaf plant response rating: 0
[12]; [26]
  Velvetleaf plant response rating: 0
[12]; [27]
  Velvetleaf plant response rating: 0
[13]; [20]
  Wheat plant response rating: 0
[13]; [22]
  Plant response rating, Wheat: 0
[13]; [23]
  Plant response rating, Wheat: 0
[13]; [24]
  Wheat plant response rating: 0
[13]; [26]
  Wheat plant response rating: 0
[13]; [27]
  Wheat plant response rating: 0
[14]; [20]
  Wild oats plant response rating: 0
[14]; [22]
  Plant response rating, Wild oats: 0
[14]; [23]
  Plant response rating, Wild oats: 0
[14]; [24]
  Wild oats plant response rating: 0
[14]; [26]
  Wild oats plant response rating: 0
[14]; [27]
  Wild oats plant response rating: 0
[15]; [20]
  Nutsedge plant response rating: 0
[15]; [22]
  Plant response rating, Nutsedge: 0
[15]; [23]
  Plant response rating, Nutsedge: 0
[15]; [24]
  Nutsedge plant response rating: 0
[15]; [26]
  Nutsedge plant response rating: 0
[15]; [27]
  Nutsedge plant response rating: 0
[16]; [28]
  Plant response rating, Rice (0 to 10 scale, 0 is no effect, 10 is complete control): 0
[16]; [29]
  Rice plant response rating (0 to 10 scale, 0 is no effect, 10 is complete control): 0
[16]; [30]
  Rice plant response rating: 0
[16]; [31]
  Rice plant response rating: 0
[17]; [28]
  Plant response rating, S. Flatsedge (0 to 10 scale, 0 is no effect, 10 is complete control): 0
[17]; [29]
  S. Flatsedge plant response rating (0 to 10 scale, 0 is no effect, 10 is complete control): 0
[17]; [30]
  S. Flatsedge plant response rating: 0
[17]; [31]
  S. Flatsedge plant response rating: 0
[18]; [28]
  Plant response rating, Ducksalad (0 to 10 scale, 0 is no effect, 10 is complete control): 0
[18]; [29]
  Ducksalad plant response rating (0 to 10 scale, 0 is no effect, 10 is complete control): 0
[18]; [30]
  Ducksalad plant response rating: 0
[18]; [31]
  Ducksalad plant response rating: 0
[19]; [28]
  Plant response rating, Barnyardgrass (0 to 10 scale, 0 is no effect, 10 is complete control): 0
[19]; [29]
  Barnyardgrass plant response rating (0 to 10 scale, 0 is no effect, 10 is complete control): 0
[19]; [30]
  Barnyardgrass plant response rating: 0
[19]; [31]
  Barnyardgrass plant response rating: 0
